Reference: patent US11033537B2, “LPT-723 and immune checkpoint inhibitor combinations and methods of treatment” (BIOMED VALLEY DISCOVERIES, INC., priority 2015, dated 2021)

Legend:
[1] = system: Colon26 murine colon cancer cells; test: Prophylactic Colon26 colon cancer model; type: in vivo, BALB/c mice; conditions: alone or with antibody
Protocol: Charles River (CR) BALB/c mice were implanted with Colon26 murine colon cancer cells on Day 1, and treatment was initiated on Day 3 with control (vehicle), anti-CTLA-4 (clone 4F10), anti-PD-1 (clone RMP1-14), anti-CTLA-4/anti-PD-1 combination, LPT-723 (10 mpk, 30 mpk), anti-CTLA-4/LPT-723 (10 mpk, 30 mpk) combination, or anti-PD-1/LPT-723 (10 mpk, 30 mpk) combination. Anti-CTLA-4 was dosed i.p. on Day 8 at a dose of 100 μg/animal and on Days 11, and 14 at a dose of 50 μg/animal. Anti-PD-1 was dosed i.p. twice a week for two weeks starting on Day 3 at a dose of 100 μg/animal. LPT-723 was dosed per os (p.o.) twice a day starting on Day 3.

[2] = system: A20 murine syngeneic B cell lymphoma; test: A20 lymphoma syngeneic model; type: in vivo, BALB/c mice; conditions: Day 15; LPT-723 30 mpk p.o. bid; anti-PD-1 10 mpk i.p. twice a week
Protocol: BALB/c mice bearing A20 murine syngeneic B cell lymphoma were treated with control (vehicle), anti-PD-1 (clone RMP1-14), LPT-723 and anti-PD-1/LPT-723 combination. Treatment was initiated when tumor volume reached approximately 80-120 mm^3. Anti-PD-1 was dosed i.p. twice a week for three weeks at 10 mpk. LPT-723 was dosed p.o. twice a day at 30 mpk. […] No significant changes in body weights were noted.

[3] = system: HCT-116 human colon xenografts; test: HCT-116 human colorectal cancer xenograft model; type: in vivo; conditions: LPT-723 30 mpk p.o. twice a day, BALB/c nude mice
Protocol: BALB/c nude mice bearing HCT-116 human colon xenografts were treated with control (vehicle) and LPT-723. Treatment was initiated when tumor volume reached approximately 80-120 mm^3. LPT-723 was dosed p.o. twice a day at 30 mpk.

[4] = system: Salmonella typhimurium TA98 and TA100; test: 2-Strain Ames test; conditions: 1.5 to 5000 μg per plate, with and without rat liver S9
Text: Test System: The two tester strains used were the Salmonella typhimurium histidine auxotrophs TA98 and TA100 as described by Ames et al. (1975). Tester strain TA98 is reverted from auxotrophy to prototrophy by frameshift mutagens while tester strain TA100 is reverted by mutagens that cause both frameshift and base pair substitution mutations.
Experimental Design: The test system was exposed to LPT-723 via the plate incorporation methodology originally described by McCann et al. (1975) and updated by Maron and Ames (1983). Briefly, LPT-723 was tested at eight dose levels along with appropriate vehicle control and positive controls. Overnight cultures of tester strains TA98 and TA100 were plated on selective minimal agar in the presence and absence of Aroclor-induced rat liver S9. […]
Plating and Scoring Procedures: LPT-723 dilutions were prepared immediately before use and delivered to the test system at room temperature under yellow light. […] Plates were counted immediately following the incubation period or were stored at 2-8° C. until colony counting could be conducted.
The condition of the bacterial background lawn was evaluated for evidence of LPT-723 toxicity using a dissecting microscope. Precipitate was evaluated by visual examination without magnification. […] Plates with sufficient LPT-723 precipitate to interfere with automated colony counting were counted manually. […]

[5] = Monkey cardiovascular (CV) study; type: in vivo; conditions: 25 and 40 mg/kg oral gavage, male monkeys, cross-over
[6] = Rat 28-day GLP toxicity study; type: in vivo, CD [Crl:CD (SD)] rats
Protocol: Vehicle and Test Article Preparation: The vehicle, 2% TPGS/1.5% HPMCAS-HF/1.5% PVP-VA with 50 mM pH 5.0 sodium citrate in deionized water, was prepared for use weekly and was stored at room temperature when not in use. A correction factor of 4 was used to adjust for purity when preparing the LPT-723 formulations. Appropriate amounts of the LPT-723 were mixed with the vehicle to achieve nominal concentrations of 0.3, 0.6, and 1.2 mg/mL. Formulations of the LPT-723 were prepared daily, stored at room temperature, protected from light, and were dosed within 4 hours of preparation.
Animal Acquisition and Acclimation: A total of 98 male and 98 female CD® [Crl:CD® (SD)] rats (approximately 6 to 7 weeks of age at receipt) were received from Charles River Laboratories, Portage, Mich. During the 10-day acclimation period, the animals were observed daily with respect to general health and any signs of disease. All animals were given a detailed clinical examination prior to selection for study. The animals were administered a sham dose of tap water on two occasions in the same manner and dose volume intended for use on study.
Randomization, Assignment to Study, and Maintenance: Using a standard, by weight, measured value randomization procedure, 85 male and 85 female animals (weighing 228 to 283 g and 170 to 218 g, respectively, at randomization) were assigned to the control and treatment groups identified in the following table.
Vehicle and LPT-723 Administration: Vehicle and LPT-723 were administered once daily for 22 days for main study animals at 12 mg/kg/day, for 23 days for TK animals at 12 mg/kg/day, and for 28 days for all animals at 0, 3, and 6 mg/kg/day. The animals were dosed via oral gavage at a dose volume of 10 mL/kg. The control group received the vehicle in the same manner as the treated groups. The vehicle and test article were dosed from stirred formulations at approximately the same time each day (±2 hours) based on the first animal dosed each day. Individual doses were based on the most recent body weights.

## Cc1cc(-c2cncc(C(O)C(F)(F)F)c2)nc2c1C(=O)N(c1cnn(CC(F)F)c1)C2(C)C (stereo not drawn) [LPT-723]
[1]; MR237 10 mg/kg bid
  % TGD: 0%
  T-C: −0
  TFS: 0
[1]; MR237 10 mg/kg p.o. bid from Day 3 to end
  Median TTE: 31.9
[1]; MR237 30 mg/kg bid
  % TGD: 5%
  T-C: 1.7
  TFS: 1
[1]; MR237 30 mg/kg bid, Day 57
  MTV (n), Day 57: 0 (1)
[1]; MR237 30 mg/kg p.o. bid from Day 3 to end
  Median TTE: 33.7
[2]
  decrease in median tumor volume: 43%
[3]
  tumor growth inhibition: 45%
[4]
  toxicity (Ames plate incorporation): No toxicity was observed
[5]
  toxicological observations: no significant toxicological observations
[6]
  therapeutic index: < 4
  tolerability: poorly tolerated
[6]; both sexes, CD [Crl:CD (SD)], in vivo, oral gavage once daily, 3, 6, 12 mg/kg/day, read-out: no observed adverse effect level (NOAEL)
  NOAEL: < 3 mg/kg
[6]; clinical chemistry
  circulating neutrophils: large increase in circulating neutrophils
[6]; particularly gastrointestinal tract
  tissue findings: inflammatory state in multiple organs
